According to patent publication US5663197A, “2-(1-hydroxyethyl)-5-hydroxynaphtho[2,3-b]furan-4,9-dione and antitumor agents comprising this compound” (priority 1992, dated 1997):
Converted amounts (≈) assume the structure as drawn.

Assays:
Format in all cases: cell-based
[1] = tested on: Human malignant B-cell lymphoma cells; test: In vitro antitumor test (trypan blue exclusion viable cell count), malignant B-cell lymphoma; settings: 72 h, three days exposure, read-out: LD50 (IC50), 50% growth-inhibitory dose
[2] = tested on: Human cholangiocarcinoma HuCC-T1 cells; test: In vitro antitumor test (trypan blue exclusion viable cell count), HuCC-T1
Protocol: (§1) An appropriate amount of NFD was dissolved in DMSO to give a 1.0 mg/ml stock solution, which was diluted as necessary before use.
(§2) The following cells in the late logarithmic phase were harvested after treatment with trypsin (containing 0.25% trypsin and 0.02% EDTA; 37° C., 3 min) and used in the test: human lung adenocarcinoma cell lines A-549, VMRC-LCD and SK-LU-1, human lung squamous cell carcinoma Calu-1 cells, human colon adenocarcinoma WiDr cells, human prostate cancer LNCaP cells, human vaginal squamous cell carcinoma A-431 cells, human cervical carcinoma HeLa cells, human cholangiocarcinoma HuCC-T1 cells, mouse skin cancer melanoma B16 (M4) cells, human pancreatic carcinoma ASPC-1 cells, human neuroblastoma IMR-132 cells, human lung small cell carcinoma SCCH-194 cells, human uninary bladder carcinoma T24 cells, human renal cell carcinoma […] cells, human gastric cancer NUGC-2 cells, human thyroid carcinoma 8305C cells, human hepatoma HUH-7 cells, human ovarian carcinoma TYK-nu cells and human chorio carcinoma BeWo cells. […] These cells were plated onto a 96-well microplate at a density of 5-10×10^3 cells/cm^2 using DMEM or RPMI-1640 medium containing 10% fetal bovine serum and cultured for 24 hours in a conventional manner, after which a pre-determined amount of NFD dissolved in DMSO was added to each well. […]

[3] = tested on: Human cervical carcinoma HeLa cells; test: In vitro antitumor test (trypan blue exclusion viable cell count), HeLa
Protocol: as §1, §2

[4] = tested on: Human lung adenocarcinoma SK-LU-1 cells; test: In vitro antitumor test (trypan blue exclusion viable cell count), SK-LU-1; settings: 72 h, three days exposure, read-out: LD50 (IC50), 50% growth-inhibitory dose
Protocol: as §1, §2

[5] = tested on: Human chronic myelogenous leukemia K562 cells; test: In vitro antitumor test (trypan blue exclusion viable cell count), K562; settings: 72 h, three days exposure, read-out: LD50 (IC50), 50% growth-inhibitory dose
Protocol: as §1, §2

[6] = tested on: Normal human peripheral blood lymphocytes; test: In vitro growth test on normal cells, peripheral blood lymphocytes
Protocol: as §1, §2

[7] = tested on: Human neuroblastoma IMR-132 cells; test: In vitro antitumor test (trypan blue exclusion viable cell count), IMR-132
Protocol: as §1, §2

[8] = tested on: Human breast cancer MRK-nu-1 cells; test: In vitro antitumor test (trypan blue exclusion viable cell count), MRK-nu-1
Protocol: as §1, §2

[9] = 72 h, three days exposure, read-out: LD50 (IC50), 50% growth-inhibitory dose

Work on `CC(O)c1cc2c(o1)C(=O)c1cccc(O)c1C2=O` (stereo not shown) [NFD, 2-(1-hydroxyethyl)-5-hydroxynaphtho[2,3-b]furan-4,9-dione] yielded an IC50 [1] of 0.0056 µg/mL (≈ 0.0217 µM), an IC50 ([2]; HuCCT-1, 72 h, HuCC-T1, three days exposure, read-out: LD50 (IC50), 50% growth-inhibitory dose) of 0.02 µg/mL (≈ 0.0775 µM) and an IC (almost complete) ([2]; HuCCT-1, FIG. 9, read-out: concentration inhibiting growth almost completely) of 0.0224 µg/mL. For the same molecule, the IC50 [3, 9] was 0.018 µg/mL (≈ 0.0697 µM), the IC (almost complete) ([3]; FIG. 8, read-out: concentration inhibiting growth almost completely) was 0.0224 µg/mL and the IC50 [4] was 0.017 µg/mL (≈ 0.0658 µM). For the same molecule, the IC50 [5] was 0.014 µg/mL (≈ 0.0542 µM), the “adverse effects on growth of normal cells” value ([6]; FIG. 26, at concentrations which cause necrosis in tumor cells) was “no adverse effects” and the IC50 ([6]; Homo sapiens, Lymphocyte, 72 h, normal peripheral blood lymphocytes, three days exposure, read-out: LD50 (IC50), 50% growth-inhibitory dose) was 0.084 µg/mL (≈ 0.325 µM). It also gave an IC50 ([7]; 72 h, IMR-132, three days exposure, read-out: LD50 (IC50), 50% growth-inhibitory dose) of 0.01 µg/mL (≈ 0.0387 µM), an IC (almost complete) ([7]; FIG. 14, read-out: concentration inhibiting growth almost completely) of 0.0447 µg/mL and an IC50 [8, 9] of 0.012 µg/mL (≈ 0.0465 µM). For the same molecule, the IC (almost complete) ([8]; FIG. 20, read-out: concentration inhibiting growth almost completely) was 0.033 µg/mL.
